According to patent US9938279B2, “Method for treating disease or condition susceptible to amelioration by AMPK activators and compounds of formula which are useful to activate AMP-activated protein kinase (AMPK)” (ENERGENESIS BIOMEDICAL CO., LTD, priority 2013, dated 2018):

Legend:
[1] = tested on: AMPK; assay: AMPK activation assay (western blot phospho-AMPK Thr172) in Hep G2; assay type: cell-based, human; details: Hep G2 cells, 30 min treatment
Method: (§1) Effects of compounds on AMPK activation were analyzed in mouse muscle cell C2C12, mouse fibroblast 3T3-L1 and human hepatocyte Hep G2. Those cell lines were cultured in high-glucose Dulbecco's modified Eagle's medium (DMEM) containing 10% fetal bovine serum (FBS), 4 mM L-glutamine, 2 mM sodium pyruvate and 1% penicillin/streptomycin (Invitrogen GibcoBRL, Carlsbad, Calif., USA) at 37° C. under 5% CO2. Cells were plated at 3×10^5 per well (6-well plate). 24 h after plating, cells were treated with indicated compounds for 30 min followed by cell lysis and western blot analysis. Equal amount of protein were separated by SDS-PAGE and then electroblotted on to PVDF membranes. Membranes were blocked with 3% BSA in PBS for 60 min and incubated with anti-phospho-AMPK (Thr172) antibody (1:2,000, Cell signaling), anti-AMPK antibody (1:2,000, Cell signaling), anti-Glut4 antibody (1:1,000, Millipore) or anti-actin antibody (1:5,000; Chemicon International) at 4° C. overnight followed by the corresponding secondary antibody for 1 h at room temperature (RT). Immunoreactive bands were detected by enhanced chemiluminescence (ECL; Pierce, Rockford, Ill., USA) and recorded using Kodakfilm (Rochester, N.Y., USA). The detected signals were scanned and then quantified by using TotalLab Quant software (TotalLab).

[2] = tested on: AMPK; assay: AMPK activation assay (western blot phospho-AMPK Thr172) in 3T3-L1; assay type: cell-based, mouse; details: 3T3-L1 cells, 30 min treatment
Method: as §1

[3] = tested on: AMPK; assay: AMPK activation assay (western blot phospho-AMPK Thr172) in C2C12; assay type: cell-based, mouse; details: C2C12 cells, 30 min treatment
Method: as §1

Row | Structure (SMILES) | AMPK activation (% to control) Hep G2 ([1]; 1 microM) | AMPK activation (% to control) Hep G2 ([1]; 10 microM) | AMPK activation (% to control) Hep G2 ([1]; 100 microM) | AMPK activation (% to control) Hep G2 ([1]; 200 microM) | AMPK activation (% to control) 3T3-L1 ([2]; 1 microM) | AMPK activation (% to control) 3T3-L1 ([2]; 10 microM) | AMPK activation (% to control) 3T3-L1 ([2]; 100 microM) | AMPK activation (% to control) 3T3-L1 ([2]; 200 microM) | AMPK activation (% to control) C2C12 ([3]; 1 microM) | AMPK activation (% to control) C2C12 ([3]; 10 microM) | AMPK activation (% to control) C2C12 ([3]; 100 microM) | AMPK activation (% to control) C2C12 ([3]; 200 microM)
1 | c1nc(NC2CCCCC2)c2[nH]cnc2n1 [Example 6-cyclohexylaminopurine, 6-cyclohexylaminopurine] | 111 % to control | 132 % to control | 261 % to control | 354 % to control | 107 % to control | 152 % to control | 269 % to control | 333 % to control | 107 % to control | 110 % to control | 248 % to control | 322 % to control
2 | O=c1[nH]c(Br)nc2nc[nH]c12 [Example 2-bromohypoxanthine, 2-bromohypoxanthine] | 110 % to control | 160 % to control | 242 % to control | 359 % to control | 111 % to control | 176 % to control | 245 % to control | 357 % to control | 108 % to control | 142 % to control | 214 % to control | 321 % to control
3 | O=c1[nH]c(=O)n([C@H]2C[C@H](O)[C@@H](CO)O2)cc1F [Floxuridine] | 117 % to control | 147 % to control | 206 % to control | 308 % to control | 116 % to control | 141 % to control | 222 % to control | 343 % to control | 117 % to control | 144 % to control | 231 % to control | 312 % to control
4 | COc1cc(CNc2nc(C)nc3nc[nH]c23)cc(OC)c1OC [2-methyl-6-(3,4,5-trimethoxybenzylamino)purine] | 112 % to control | 168 % to control | 270 % to control | 359 % to control | 115 % to control | 141 % to control | 254 % to control | 346 % to control | 106 % to control | 117 % to control | 211 % to control | 361 % to control
5 | Oc1nc(S)nc2nc[nH]c12 [Example 2-mercapto-6-hydroxypurine, 2-mercapto-6-hydroxypurine] | 113 % to control | 132 % to control | 209 % to control | 315 % to control | 115 % to control | 147 % to control | 220 % to control | 308 % to control | 109 % to control | 148 % to control | 251 % to control | 333 % to control
6 | Oc1nc(NCc2ccccc2)c2[nH]cnc2n1 [Example 2-hydroxy-6-benzylaminopurine, 2-hydroxy-6-benzylaminopurine] | 109 % to control | 137 % to control | 261 % to control | 338 % to control | 115 % to control | 126 % to control | 230 % to control | 309 % to control | 108 % to control | 135 % to control | 244 % to control | 356 % to control
7 | CNc1nc(N)nc2nc[nH]c12 [Example 2-amino-6-methylaminopurine, 2-amino-6-methylaminopurine] | 114 % to control | 139 % to control | 230 % to control | 348 % to control | 109 % to control | 135 % to control | 220 % to control | 332 % to control | 119 % to control | 187 % to control | 215 % to control | 351 % to control
8 | Nc1nc(N)c2[nH]cnc2n1 [2,6-diaminopurine] | 113 % to control | 155 % to control | 274 % to control | 397 % to control | 108 % to control | 149 % to control | 288 % to control | 335 % to control | 116 % to control | 181 % to control | 281 % to control | 381 % to control
9 | CNc1ncnc2nc[nH]c12 [Example 6-methylaminopurine, 6-methylaminopurine] | 116 % to control | 141 % to control | 259 % to control | 363 % to control | 107 % to control | 129 % to control | 241 % to control | 347 % to control | 103 % to control | 108 % to control | 213 % to control | 328 % to control
10 | Nc1nc(I)nc2nc[nH]c12 [Example 2-iodoadenine, 2-iodoadenine] | 115 % to control | 151 % to control | 227 % to control | 341 % to control | 116 % to control | 179 % to control | 237 % to control | 358 % to control | 114 % to control | 143 % to control | 214 % to control | 311 % to control
11 | CNc1nc(O)nc2nc[nH]c12 [Example 2-hydroxy-6-methylaminopurine, 2-hydroxy-6-methylaminopurine] | 115 % to control | 148 % to control | 266 % to control | 354 % to control | 113 % to control | 162 % to control | 271 % to control | 382 % to control | 118 % to control | 151 % to control | 255 % to control | 361 % to control
12 | Sc1ncnc2nc[nH]c12 [Example 6-mercaptopurine, 6-mercaptopurine] | 114 % to control | 122 % to control | 204 % to control | 279 % to control | 114 % to control | 128 % to control | 176 % to control | 218 % to control | 105 % to control | 119 % to control | 198 % to control | 289 % to control
